What was measured:
[1] = tested on: trachea isolated from guinea pig; assay: Test 3: Direct relaxation of the trachea isolated from guinea pig; details: Cavia porcellus; 50% of the maximum relaxation; maximum = relaxation by isoproterenol at 1×10^-6 M; cumulative addition; basal tension 0.5 g; 37° C.
Description: Test 3-Direct relaxation of the trachea isolated from guinea pig.
This test was performed according to the experimental model described by Emmerson, J. and Mackay, D. (J. Pharm. Pharmacol., 1979, 31, 798). Tracheas were extracted from male guinea pigs of 400 g of body weight, which had been stunned by a blow in the head. Then, tracheas were cut in zigzag and placed into an isolated organ bath (Letica) containing Krebs-Henseleit solution at 37° C. and were bubbled with carbogen (95% O2 and 5% CO2). The relaxation of the trachea was measured using an isometric force transducer. The basal tension was 0.5 g.

[2] = tested on: hypertense rats; assay: Test 2: Lowering of the arterial pressure in concious hypertense rats; format: in vivo, rat; details: 1 mg/Kg p.o.; spontaneously hypertense rats, conscious; 3 animals; arterial pressure every 60 minutes during 4 hours
Description: Test 2: Lowering of the arterial pressure in concious hypertense rats.
Spontaneously hypertense rats (between 200 and 250 g of body weight) of more than 8 weeks of age have been used. Diastolic and systolic arterial pressure of the rat was measured at the caudal artery using a special sphygnomanometer (Letica 5007 and 5007/4) attached to the animal's tail. To ensure rapid and reliable data, animals were placed in a heating plate at 37° C., with the aim to produce a vasodilation that ensured a better fixation of the rat tail to the transfer chamber. During the experiment, rats are conscious and fixed to a clamp. The tested products were administered orally. Arterial pressure was measured every 60 minutes during 4 hours and 10 minutes before the administration of the tested compound. The decrease of the arterial pressure was calculated for each compound at a dose of 1 mg/Kg, using 3 animals.

[3] = tested on: portal vein isolated from rat; assay: Test 1: Inhibition of the contraction induced by noradrenaline in portal vein isolated from rat; details: 0.5 h
Description: Test 1: Inhibition of the contraction induced by noradrenaline in portal vein isolated from rat.
Portal vein was extracted from adult male rats (between 200 and 250 g of body weight), which had been stunned by a blow in the head. Portal vein was installed into an isolated organ bath (Letica) containing a physiological saline solution (Hamilton et al., Br. J. Pharmacol., 1986, 103-111) at 37° C. and a gas bubbler (5% CO2 and 95% O2). Contractions were induced by noradrenaline (3 μM) and were reverted after thoroughly washing with physiological saline solution. Portal vein contraction was measured with an isometric force transducer and with an initial tension of 1 g. After two contractions with noradrenaline, performed in order to measure the tissue's basal response, the tested compounds were incubated for 30 minutes and a new contraction was induced.

Structure (SMILES)	EC50 [1]	IC50 [3]	Pressure Decrease [2]
CC1(C)C(=O)c2ccc(C#N)cc2[C@@H](n2ccccc2=O)[C@@H]1O (relative stereo) [Compound 23, Trans 4(1,2-dihydro-2-oxo-1-pyridyl)-2,2-dimethyl-3-hydroxy-1-oxo-1,2,3,4-tetrahydronaphthalen-6-carbonitrile]	99000 nM	14000 nM	84 mm Hg
CC(=O)O[C@H]1[C@H](n2ccccc2=O)c2cc(C#N)ccc2C(=O)C1(C)C (relative stereo) [Compound 24, Trans 3-acetoxy-4-(1,2-dihydro-2-oxo-1-pyridyl)-2,2-dimethyl-1-oxo-1,2,3,4-tetrahydronaphthalen-6-carbonitrile]	2200 nM	23000 nM	64.7 mm Hg
CC1(C)C(=O)c2cc(Cl)c(Cl)cc2[C@@H](n2ccccc2=O)[C@@H]1O (relative stereo) [Compound 57, Trans 6,7-dichloro-4-(1,2-dihydro-2-oxo-1-pyridyl)-2,2-dimethyl-3-hydroxy-1,2,3,4-tetrahydronaphthalen-1-one]	500 nM	1500 nM	52 mm Hg
CC1(C)C(=O)c2ccc(S(=O)(=O)c3ccccc3)cc2[C@@H](n2ccccc2=O)[C@@H]1O (relative stereo) [Compound 60, Trans 4-(1,2-dihydro-2-oxo-1-pyridyl)-2,2-dimethyl-3-hydroxy-6-phenylsulphonyl-1,2,3,4-tetrahydronaphthalen-1-one]		300 nM	32.5 mm Hg
CC1(C)C=C(n2ccccc2=O)c2cc(Cl)ccc2C1=O [Compound 11, 6-chloro-1,2-dihydro-4-(1,2-dihydro-2-oxo-1-pyridyl)-2,2-dimethylnaphthalen-1-one]	1100 nM	1400 nM	53 mm Hg
CC1(C)C=C(N2CCCC2=O)c2cc(Cl)ccc2C1=O [Compound 13, 6-chloro-1,2-dihydro-2,2-dimethyl-4-(2-oxo-1-pyrrolidinyl)naphthalen-1-one]	> 10000 nM	> 10000 nM	32 mm Hg
CC1(C)C=C(n2ccccc2=O)c2cc(Br)ccc2C1=O [Compound 16, 6-bromo-1,2-dihydro-4-(1,2-dihydro-2-oxo-1-pyridyl)-2,2-dimethylnaphthalen-1-one]	200 nM	500 nM	
CC(=O)N(C)c1ccc2c(c1)C(n1ccccc1=O)=CC(C)(C)C2=O [Compound 38, 1,2-dihydro-4-(1,2-dihydro-2-oxo-1-pyridyl)-2,2-dimethyl-6N-methylacetamidonaphthalen-1-one]	1500 nM	4300 nM	49.3 mm Hg
CC1(C)C=C(n2ccccc2=O)c2cc(C(F)(F)F)ccc2C1=O [Compound 42, 1,2-dihydro-4-(1,2-dihydro-2-oxo-1-pyridyl)-2,2-dimethyl-6-trifluoromethylnaphthalen-1-one]	31000 nM	350 nM	103 mm Hg
CC1(C)C=C(n2ccccc2=O)c2cc(C#C[Si](C)(C)C)ccc2C1=O [Compound 49, 1,2-dihydro-4-(1,2-dihydro-2-oxo-1-pyridyl)-2,2-dimethyl-6-trimethylsilylethynylnaphthalen-1-one]	4800 nM	460 nM	91.5 mm Hg
C#Cc1ccc2c(c1)C(n1ccccc1=O)=CC(C)(C)C2=O [Compound 50, 1,2dihydro-4-(1,2-dihydro-2-oxo-1-pyridyl)-2,2-dimethyl-6-ethynylnaphthalen-1-one]	250 nM	980 nM	112 mm Hg
CC1(C)C=C(n2ccccc2=O)c2ccc(Br)cc2C1=O [Compound 52, 7-bromo-1,2-dihydro-4-(1,2-dihydro-2-oxo-1-pyridyl)-2,2-dimethylnaphthalen-1-one]		2700 nM	37 mm Hg
CC1(C)C=C(n2ccccc2=O)c2cc(Cl)c(Cl)cc2C1=O [Compound 58]	50 nM	700 nM	58 mm Hg

More lines, main results first:

EC50 [1]	IC50 [3]	Structure (SMILES)	Pressure Decrease [2]
> 10000 nM	28000 nM	CC1(C)C(=O)c2ccc(Br)cc2[C@@H](n2ccccc2=O)[C@@H]1O (relative stereo) [Compound 14, Trans 6-bromo-4-(1,2-dihydro-2-oxo-1-pyridyl)-2,2-dimethyl-3-hydroxy-1,2,3,4-tetrahydronaphthalen-1-one]	23 mm Hg
78000 nM	> 10000 nM	CC1(C)C(=O)c2ccc(Br)cc2[C@@H](N2CCCC2=O)[C@@H]1O (relative stereo) [Compound 18, Trans 6-bromo-2,2-dimethyl-3-hydroxy-4-(2-oxo-1-pyrrolidinyl)-1,2,3,4-tetrahydronaphthalen-1-one]	39 mm Hg
> 50000 nM	3100 nM	CC1(C)C(=O)c2ccc(Br)cc2[C@@H](N2Cc3ccccc3C2=O)[C@@H]1O (relative stereo) [Compound 22, Trans 6-bromo-4-(2,3-dihydro-1-oxo-1H-isoindol-2-yl)-2,2-dimethyl-3-hydroxy-1,2,3,4-tetrahydronaphthalen-1-one]	24 mm Hg
> 100000 nM	33000 nM	CC(=O)N(C)c1ccc2c(c1)[C@@H](n1ccccc1=O)[C@H](O)C(C)(C)C2=O (relative stereo) [Compound 36, Trans 4-(1,2-dihydro-2-oxo-1-pyridyl)-2,2-dimethyl-3-hydroxy-6-N-methylacetamide-1,2,3,4-tetrahydronaphthalen-1-one]	94 mm Hg
1000 nM		CC1(C)C(=O)c2ccc(C(F)(F)F)cc2[C@@H](n2ccccc2=O)[C@@H]1O (relative stereo) [Compound 41, Trans 4-(1,2-dihydro-2-oxo-1-pyridyl)-2,2-dimethyl-3-hydroxy-1,2,3,4-tetrahydro-6-trifluoromethylnaphthalen-1-one]	52.6 mm Hg
	21000 nM	COc1ccc2c(c1)C(n1ccccc1=O)=CC(C)(C)C2=O [Compound 6, 1,2-dihydro-4-(1,2-dihydro-2-oxo-1-pyridyl)-2,2-dimethyl-6-methoxynaphthalen-1-one]	42.5 mm Hg
19000 nM	10000 nM	CC1(C)C=C(N2CCCC2=O)c2cc(Br)ccc2C1=O [Compound 21, 6-bromo-1,2-dihydro-2,2-dimethyl-4-(2-oxo-1-pyrrolidinyl)naphthalen-1-one]	60.5 mm Hg
100 nM	600 nM	CC1(C)C=C(n2ccccc2=O)c2cc(C#N)ccc2C1=O [Compound 26, 1,2-dihydro-4-(1,2-dihydro-2-oxo-1-pyridyl)-2,2-dimethyl-1-oxonaphthalen-6-carbonitrile]	96.5 mm Hg
900 nM	800 nM	CC1(C)C=C(N2CCCC2=O)c2cc(C#N)ccc2C1=O [Compound 30]	103 mm Hg
2500 nM	17000 nM	CC(=O)N(C)c1ccc2c(c1)C(N1CCCC1=O)=CC(C)(C)C2=O [Compound 40, 1,2-dihydro-2,2-dimethyl-6-N-methylacetamido-4-(2-oxo-1-pyrrolidinyl)naphthalen-1-one]	23 mm Hg
	> 10000 nM	CC1(C)C=C(n2ccccc2=O)c2ccc(C#N)cc2C1=O [Compound 55, 1,2-dihydro-4-(1,2dihydro-2-oxo-1-pyridyl)-2,2-dimethyl-1-oxonaphthalen-7carbonitrile]	41 mm Hg

— US5208246A, “Tetralones with pharmacological activity” (J. Uriach & Cia., priority 1991, dated 1993)
